Experimental data reported in publication PMC6791019, “(−)-Epigallocatechin-3-gallate derivatives combined with cisplatin exhibit synergistic inhibitory effects on non-small-cell lung cancer cells” (Cancer Cell International, 2019).

Key:
[1] = Transport across Caco-2 cell monolayers; assay type: in vitro ADME, human; conditions: human; for Papp A→B at 30 min, 50 μg/mL / Papp A→B at 60 min, 50 μg/mL / Papp B→A at 30 min, 50 μg/mL / Papp B→A at 60 min, 50 μg/mL: Caco-2, 50 μg/mL; for Papp A→B at 30 min, 50 μg/mL / Papp A→B at 60 min, 50 μg/mL: apical to basolateral; for Papp B→A at 30 min, 50 μg/mL / Papp B→A at 60 min, 50 μg/mL: basolateral to apical; for Papp: Caco-2, summary of Table 1, read-out: apparent permeability coefficients (Papp), range over directions and times
Protocol: (§1) Caco-2 cells were grown as epithelial monolayers, seeded onto fibrillar collagen-coated polyethylene terephthalate (PET) Corning transwell inserts (1.12 cm^2) with a pore size of 3 μm at a density of 2.0 × 10^5 cells/insert, and incubated at 37 °C in an atmosphere of 5% CO2 and 95% relative humidity in complete DMEM. The medium was replaced every 2 days with 0.5 mL medium in the apical (AP) side and 1.5 mL in the basolateral (BL) side over a period of 21 days. The integrity of the cell monolayer was determined by measuring the TEER (transepithelial electrical resistance) using an epithelial voltohmmeter (EVOM). The TEER values for each monolayer were measured every 2 days until they exceeded 350 Ω cm^2. To ensure the integrity of the Caco-2 monolayers, the TEER values were monitored before and after the experiments.
(§2) To measure the transport of EGCG and compound 3 across the Caco-2 cell monolayer, both sides of the transwell were equilibrated for 30 min with warm Hank’s balanced salt solution (HBSS). The transport buffer containing EGCG and compound 3 was added to either the apical (0.5 mL) or the basolateral (1.5 mL) side of the insert, while the receiving compartment contained the corresponding volume of transport buffer. After incubation for 30 or 60 min, 100 μL samples were taken from the receiving chamber and immediately replenished with an equal volume of pre-warmed HBSS. The samples were acidified with an equal volume of 5% formic acid and then frozen until LC–MS analysis.
(§3) The apparent permeability coefficients (Papp) of the compounds were calculated using the following equation: Papp=dQ/dt×1/A·C0, where dQ/dt is the amount of solute transported across the Caco-2 barrier in time dt, C0 is the solute concentration in the apical compartment at time zero, and A is the cross-sectional area of the epithelium in contact with the apical solution.

[2] = tested on: NCI-H1975 cells; experiment: MTT cell proliferation assay, NCI-H1975; assay type: cell-based, human; conditions: 0-150 µM, 48 h
Protocol: (§4) The effects of the EGCG derivatives on the survival of NSCLC cells were determined using the MTT assay. A549, NCI-H441, and NCI-H1975 cells were seeded in 96-well plates (3 × 10^4 cells/well) and then treated with one of the EGCG derivatives alone (0, 30, 60, 90, 120, or 150 µM), cDDP alone (12 µM), or 12 μM cDDP plus one of the EGCG derivatives (100 µM) for 48 h. MTT was then added to the cells and the plates were incubated for a further 4 h. After removal of the culture medium, the produced MTT formazan crystals were dissolved with 150 µL DMSO and measured at 492 nm using a microplate reader. The percentage of inhibition was calculated as follows: inhibition ratio (IR, %) = (1 − OD(sample)/OD(control)) × 100%. The experiments were carried out in triplicate, and the IC50 (the concentration of drug that inhibits cell growth by 50%) values were determined.

[3] = tested on: Caco-2 cell monolayers; experiment: Transport across Caco-2 cell monolayers; assay type: in vitro ADME, human; conditions: Caco-2, 50 µg/mL, A→B
Protocol: as §1, §2, §3

[4] = tested on: NCI-H441 xenograft; experiment: NCI-H441 xenograft model in nude mice; assay type: in vivo, BALB-C/nude mice; conditions: for tumor growth compared with the control: compound 3 200 mg/kg per day, cDDP 2 mg/kg per 2 days, i.p., nude mice
Protocol: Twenty-four male BALB-C/nude mice were purchased from the Cavens Lab Animal (Changzhou, China). The mice were subcutaneously injected in the dorsal with NCI-H441 cells (4 × 10^6/0.2 mL PBS per mouse). The mice were randomly divided into four groups, including control, compound 3, cDDP, and compound 3 plus cDDP (n = 6, per group). The mice were treated with compound 3 (200 mg/kg per day) and cDDP (2 mg/kg per 2 days) alone or in combination. All drugs were given through intra-peritoneal injection. Tumour size was measured once every 2 days with a calipre (volume mm^3 = length × width × width/2). Body weight was recorded once every 2 days. After there weeks of treatment, all mice were euthanized by cervical dislocation and the tumors were excised into formalin, and portion of the tumor fresh frozen in liquid nitrogen for further processing and analysis.
Three micrometer sections were cut, deparaffinized in xylenes, rehydrated in ethanol, and washed in phosphate-buffered saline. The antigen was retrieved at 95 °C for 20 min in 0.01 M citrate buffer (pH 6.0). Then incubated with primary antibodies overnight at 4 °C, followed by incubation with the secondary antibody at RT for 1 h. The immunostaining was performed using DAB, and counterstained with hematoxylin.

[5] = tested on: EGFR signaling pathway in NCI-H441 cells; experiment: Western blotting of EGFR signaling pathway proteins; assay type: cell-based, human; conditions: NCI-H441, western blot after 12 h
Protocol: (§5) Samples containing equal amounts of proteins as indicated in the text were resolved by SDS polyacrylamide gel electrophoresis and transferred to PVDF membranes. The membranes were blocked with 5% BSA at room temperature for 1 h and then probed with primary antibodies overnight at 4 °C and incubated with the HRP-conjugated secondary antibodies for 1 h at room temperature. HRP was detected using the Pro-light HRP Chemiluminescent Kit (Tiangen Biotech, Beijing, China) and FluorChem E System (ProteinSimple, Santa Clara, CA, United States).

[6] = tested on: NCI-H441 cells; experiment: Cell cycle analysis by PI staining and flow cytometry; assay type: cell-based, human; conditions: NCI-H441, 0, 50, 100, 150 μM
Protocol: Aliquots of 5 × 10^5 cells were harvested, washed with phosphate-buffered saline (PBS), and then fixed in 70% ethanol at 4 °C overnight. After fixation, the cells were washed twice with cold PBS and stained in binding buffer containing 1 µg/mL of propidium iodide (BD Biosciences) and RNase for 0.5 h. The samples were then analyzed by flow cytometry (BD FACSCalibur).

[7] = tested on: A549 cells; experiment: MTT cell proliferation assay, A549; assay type: cell-based, human; conditions: 0-150 µM, 48 h
Protocol: as §4

[8] = tested on: NCI-H441 cells; experiment: Annexin V-FITC/PI apoptosis assay by flow cytometry; assay type: cell-based, human; conditions: NCI-H441, 48 h
Protocol: Cell apoptosis was quantified using an annexin V/propidium iodide (PI) detection kit (BD Biosciences, PA, USA) and flow cytometry. Cells (5 × 10^5/well) were plated in six-well dishes and then treated with the EGCG derivatives with or without cDDP. After the treatment, the collected cells were incubated in 100 µL of binding buffer and 5 µL of FITC annexin V and 10 µL of PI were added to the suspension. The mixtures were gently vortexed and then incubated for 15 min at room temperature in the dark before performing the flow cytometry measurements (BD FACSCalibur) within 1 h.

[9] = tested on: NCI-H441 cells; experiment: MTT cell proliferation assay, NCI-H441; assay type: cell-based, human; conditions: 0-150 µM, 48 h
Protocol: as §4

[10] = tested on: NCI-H441 cells; experiment: Western blotting of cell cycle and apoptosis proteins; assay type: cell-based, human; conditions: NCI-H441, western blot, cDDP alone
Protocol: as §5

SMILES: O=C(O[C@@H]1Cc2c(O)cc(O)cc2O[C@@H]1c1cc(O)c(O)c(O)c1)c1cc(O)c(O)c(O)c1 [EGCG, (−)-epigallocatechin-3-gallate]
- Papp A→B at 30 min, 50 μg/mL [1]: 0.189 ×10⁻⁶ cm/s
- Papp A→B at 60 min, 50 μg/mL [1]: 0.32 ×10⁻⁶ cm/s
- Papp B→A at 30 min, 50 μg/mL [1]: 0.89 ×10⁻⁶ cm/s
- Papp B→A at 60 min, 50 μg/mL [1]: 0.083 ×10⁻⁶ cm/s
- Papp [1]: 0.083 to 0.914 ×10⁻⁶ cm/s

SMILES: O=C(O[C@@H]1Cc2c(OCc3cnnn3[C@@H]3O[C@H](CO)[C@@H](O)[C@H](O)[C@H]3O)cc(O)cc2O[C@@H]1c1cc(O)c(O)c(O)c1)c1cc(O)c(O)c(O)c1 [compound 3, (2R,3R)-7-Hydroxy-5-((1-((2R,3R,4S,5S,6R)-3,4,5-trihydroxy-6-(hydroxymethyl)tetrahydro-2H-pyran-2-yl)-1H-1,2,3-triazol-5-yl)methoxy)-2-(3,4,5-trihydroxyphenyl)chroman-3-yl 3,4,5-trihydroxybenzoate]
- proliferation of NCI-H1975 cells [2]: the same effect was not observed
- Papp A→B at 30 min, 50 μg/mL [1]: 0.914 ×10⁻⁶ cm/s
- Papp A→B at 60 min, 50 μg/mL [1]: 0.41 ×10⁻⁶ cm/s
- Papp B→A at 30 min, 50 μg/mL [1]: 0.83 ×10⁻⁶ cm/s
- Papp B→A at 60 min, 50 μg/mL [1]: 0.39 ×10⁻⁶ cm/s
- Papp [1]: 0.083 to 0.914 ×10⁻⁶ cm/s
- transepithelial transport rate, apical to basolateral, fold higher than EGCG [3]: 4.9 fold
- nude mouse body weight compared with the control group ([4]; compound 3 200 mg/kg per day i.p.): did not reduce the nude mouse body weight
- tumor growth compared with the control [4]: reduced tumor growth
- P-EGFR, P-AKT and P-ERK levels [5]: effectively inhibited these phosphorylation proteins in a dose-dependent manner
- cell cycle distribution, effect of increasing doses [6]: increased the proportion of cells in the S phase in a dose-dependent manner
- proliferation of A549 cells [7]: the same effect was not observed
- number of apoptotic cells compared to untreated control [8]: significantly increased in a concentration-dependent manner
- proliferation of NCI-H441 cells [9]: substantial dose-dependent growth inhibition

SMILES: [NH2][Pt]([NH2])([Cl])[Cl] [cDDP, cisplatin]
- tumor growth compared with the control [4]: reduced tumor growth
- levels of PCNA, p53, p21, cyclin D1 and cyclin E [10]: minimal effects
